# Measurements published in patent US11649475B2, “Dioxetane compounds and their use for the detection of microorganisms” (NEMIS Technologies AG, priority 2018, dated 2023).
# Columns and labels:
# [1] = tested on: phosphatidylinositol-specific phospholipase C (PI-PLC); test: Enzymatic assay of PI-PLC activity with Compound IIIa; format: biochemical; settings: for RLU: PBS pH 7.4, 1% v/v DMSO
# Procedure: Varying concentrations of phosphatidylinositol-specific phospholipase C (PI-PLC) were added and luminescence was recorded at room temperature (Table 4). Assays were performed in a white microtiter plate with 0.25 mL total liquid volume.
# [2] = tested on: Listeria innocua (6a) ATCC 33090; test: Luminescence of culture samples after addition of Compound IIIa; format: cell-based; settings: L.i., inoculation density 10^5 CFU/mL, 6 h cultivation, 10 μM
# Procedure: (§1) Similar cell concentrations of all strains were inoculated in triplicate test tubes with M52 broth. In addition, further dilutions of L.m. 2 cells in sterile saline were inoculated in triplicate test tubes. Sterile saline was added to negative control tubes. […] Final concentration of Compound IIIa was 10 μM, final concentration of dimethyl sulfoxide was 1% v/v. Light emission was recorded with a plate reader equipped with a luminescence detection system. […] It was possible to detect 10^3 CFU/mL of Listeria monocytogenes after 6 h of incubation as indicated by a signal-to-noise ratio of 2 relative to sterile controls.
# [3] = tested on: Listeria monocytogenes ATCC 7644; test: as above; format: cell-based; settings: L.m. 1, inoculation density 10^5 CFU/mL, 6 h cultivation, 10 μM
# Procedure: as §1
# [4] = tested on: Listeria monocytogenes (4b) ATCC 19115; test: as above; format: cell-based; settings: 6 h cultivation, 10 μM; for Mean RLU (n = 3): 16-20 min after addition
# Procedure: as §1
# [5] = tested on: Escherichia coli ATCC 25922; test: as above; format: cell-based; settings: E.c., inoculation density 10^5 CFU/mL, 6 h cultivation, 10 μM
# Procedure: as §1
# [6] = tested on: Escherichia coli ATCC 25922; test: Luminescence of culture samples after addition of Compound IIa; format: cell-based; settings: E.c., inoculation density 10^5 CFU/mL, 6 h cultivation, 10 μM
# Text: (§2) Citrobacter freundii ATCC 8090 (C.f., […] negative), Escherichia coli ATCC 25922 (E.c., […] negative), Salmonella Typhimurium (D) ATCC […]., Salmonella enterica ssp. I ser. Typhimurium, […] positive), Salmonella Enteritidis (D) ATCC […]. 1, Salmonella enterica ssp. enterica ser. Enteritidis, […] positive) and Salmonella Enteritidis RKI 05/[…]. 2, Salmonella enterica ssp. enterica ser. […] Similar cell concentrations of all strains were inoculated in triplicate test tubes with Nutrient Broth. […] Sterile saline was added to negative control tubes. […] Final concentration Compound IIa was 10 μM, final concentration of dimethyl sulfoxide was […]. Light emission was recorded with a plate reader equipped with a luminescence detection system.
# [7] = tested on: Citrobacter freundii ATCC 8090; test: as above; format: cell-based; settings: C.f., inoculation density 10^5 CFU/mL, 6 h cultivation, 10 μM
# Text: as §2
# pig liver esterase = test: Enzymatic assay of pig liver esterase activity with Compound IIa; settings: 62.5 μM, PBS pH 7.4, 10% v/v DMSO, 20 min measurement period
# Procedure: The assay mix was pre-incubated for 20 min at room temperature, then 1:5 v/v of pig liver esterase solutions containing varying enzyme concentrations were added and luminescence was recorded for 20 min at room temperature with a SpectraMax M5 reader in luminescence mode. Assays were performed in a black microtiter plate with a total liquid volume of 0.25 mL.
# [8] = tested on: Salmonella Enteritidis RKI 05/07992; test: Luminescence of culture samples after addition of Compound IIa; format: cell-based, Salmonella enterica ssp. enterica ser. Enteritidis; settings: for Signal to noise ratio (to sterile) / Mean RLU (n = 3): 6 h cultivation, 10 μM; for Mean RLU (n = 3): 27-30 min after addition
# Text: as §2
# [9] = tested on: Salmonella Enteritidis (D) ATCC 13076; test: as above; format: cell-based, Salmonella enterica ssp. enterica ser. Enteritidis; settings: S.E. 1, inoculation density 10^5 CFU/mL, 6 h cultivation, 10 μM
# Text: as §2
# [10] = tested on: Salmonella Enteritidis RKI 05/07992; test: Limit of detection of Salmonella enterica, Compound IIa versus MUCAP; format: cell-based; settings: Compound IIa 10 μM versus MUCAP 0.1 mM, PBS, 15% DMSO
# Procedure: Salmonella Enteritidis RKI 05/07992 was cultivated in Nutrient Broth (5 g/I peptone, 5 g/l NaCl, 2 g/L yeast extract, 1 g/l beef extract, pH 7.4) for 20 h (37° C., 150 rpm) and then serially diluted in phosphate buffered saline. Cell suspensions were mixed 1:1 v/v with phosphate buffered saline containing dimethyl sulfoxide (final concentration in assay 15%) and either Compound IIa (final concentration 10 μM) or 4-Methylumbelliferyl caprylate (MUCAP, final concentration 0.1 mM). Assays were performed in microplates, total liquid volume was 0.2 mL. Light emission and fluorescence (excitation 360 nm, emission 455 nm) were recorded with a SpectraMax M5 (Molecular Devices, Sunnyvale, Calif., USA) plate reader. Cell concentration of undiluted culture was estimated from optical density (600 nm).
# [11] = tested on: Salmonella Typhimurium (D) ATCC 14028; test: Luminescence of culture samples after addition of Compound IIa; format: cell-based, Salmonella enterica ssp. I ser. Typhimurium; settings: S.T., inoculation density 10^5 CFU/mL, 6 h cultivation, 10 μM
# Text: as §2
# glucose = test: Detection of glucose in Escherichia coli culture supernatant with compound VIa and glucose oxidase; format: biochemical; settings: 40 μM compound VIa in HEPES buffer pH 7.0, 1 mg/mL glucose oxidase, 20 min
# Procedure: Cells were separated from culture supernatant by centrifugation (13'000×g, 2 min). […] A second negative control also contained 5 mM glucose, but no glucose oxidase. Culture supernatant with and without glucose (0.1 mL) was mixed in a white microtiter plate with 0.1 mL of HEPES buffer (100 mM, pH 7.0) containing 40 μM of compound VIa, reacting with hydrogen peroxide) and 1 mg/mL commercially available glucose oxidase from Aspergillus niger. […] Presence of glucose lead to continuously increasing luminescence when compound Via and glucose oxidase were also present.
# [12] = tested on: Methicillin-resistant Staphylococcus aureus ATCC 33592 (MRSA); test: Luminescence development in cultures with and without oxacillin, Compound IVa; format: cell-based; settings: oxacillin 20 mg/L, 6 h, 10 μM compound IVa as indicator
# Procedure: (§3) Methicillin-resistant Staphylococcus aureus ATCC 33592 (MRSA), a strain which is resistant to penicillin derivatives such as methicillin and oxacillin, and methicillin-susceptible Staphylococcus aureus ATCC 29213 (MSSA) were cultivated overnight at 37° C. in nutrient broth (5 g/L peptone, 5 g/L sodium chloride, 2 g/L yeast extract, 1 g/L meat extract, pH 7.4) and diluted in sterile saline. MRSA and MSSA strains were inoculated at approx. 10^6 CFU/mL in nutrient broth containing compound IVa at a final concentration of 10 μM. For each strain, one culture was supplemented with oxacillin (20 mg/L final concentration) and one culture was left without antibiotics. Tube cultures were incubated at 37° C. and 150 rpm. A sterile control (nutrient broth with 10 μM of compound IVa) was incubated in parallel. Luminescence of culture samples (0.2 mL in a white microtiter plate) was recorded at regular intervals for 6 h with a SpectraMax M5 plate reader (FIG. 4: Luminescence development in cultures of MRSA and MSSA in the presence and absence of the antibiotic oxacillin). […] Growing and non-growing cultures could be distinguished after 1 h of incubation.
# [13] = tested on: methicillin-susceptible Staphylococcus aureus ATCC 29213 (MSSA); test: as above; format: cell-based; settings: oxacillin 20 mg/L, 6 h, 10 μM compound IVa as indicator
# Procedure: as §3
# [14] = L.m. 2, inoculation density 10^2 CFU/mL
# [15] = L.m. 2, inoculation density 10^3 CFU/mL
# [16] = L.m. 2, inoculation density 10^4 CFU/mL
# [17] = L.m. 2, inoculation density 10^5 CFU/mL
# [18] = S.E. 2, inoculation density 10^1 CFU/mL
# [19] = S.E. 2, inoculation density 10^2 CFU/mL
# [20] = S.E. 2, inoculation density 10^3 CFU/mL
# [21] = S.E. 2, inoculation density 10^4 CFU/mL
# [22] = S.E. 2, inoculation density 10^5 CFU/mL
smiles,measurement,setting,value
COC(=O)/C=C/c1ccc(C2(OC)OOC23C2CC4CC(C2)CC3C4)c(Cl)c1OCc1ccc(OP(=O)(O)O[C@@H]2[C@H](O)[C@H](O)[C@@H](O)[C@H](O)[C@H]2O)cc1 (some centres unmarked) [Compound IIIa],Signal to noise ratio,[1]; PI-PLC added 5 · 10^−1 U/mL,862
same,RLU,"[1]; PI-PLC added 5 · 10^−1 U/mL, 10 μM",60265 RLU
same,Signal to noise ratio,[1]; PI-PLC added 5 · 10^−2 U/mL,512
same,RLU,"[1]; PI-PLC added 5 · 10^−2 U/mL, 10 μM",35822 RLU
same,Signal to noise ratio,[1]; PI-PLC added 5 · 10^−3 U/mL,148
same,RLU,"[1]; PI-PLC added 5 · 10^−3 U/mL, 10 μM",10369 RLU
same,Signal to noise ratio,[1]; PI-PLC added 5 · 10^−4 U/mL,17
same,RLU,"[1]; PI-PLC added 5 · 10^−4 U/mL, 10 μM",1191 RLU
same,Signal to noise ratio (to sterile),[2],2.3
same,Mean RLU (n = 3),[2]; 16-20 min after addition,33 RLU
same,Signal to noise ratio (to sterile),[3],832
same,Mean RLU (n = 3),[3]; 16-20 min after addition,11913 RLU
same,Signal to noise ratio (to sterile),[4]; [14],0.9
same,Mean RLU (n = 3),[4]; [14],12 RLU
same,Signal to noise ratio (to sterile),[4]; [15],2.2
same,Mean RLU (n = 3),[4]; [15],31 RLU
same,Signal to noise ratio (to sterile),[4]; [16],17
same,Mean RLU (n = 3),[4]; [16],242 RLU
same,Signal to noise ratio (to sterile),[4]; [17],716
same,Mean RLU (n = 3),[4]; [17],10258 RLU
same,Signal to noise ratio (to sterile),[5],0.5
same,Mean RLU (n = 3),[5]; 16-20 min after addition,7 RLU
CCCCCCCC(=O)Oc1ccc(COc2c(/C=C/C(=O)O)ccc(C3(OC)OOC34C3CC5CC(C3)CC4C5)c2Cl)cc1 (centres unmarked) [Compound IIa],relation of PI-PLC concentration and maximal RLU,"[1]; 10 μM, 20 min measurement period",positive correlation over two orders of magnitude
same,Signal to noise ratio (to sterile),[6],6
same,Mean RLU (n = 3),[6]; 27-30 min after addition,3504 RLU
same,Signal to noise ratio (to sterile),[7],12
same,Mean RLU (n = 3),[7]; 27-30 min after addition,6480 RLU
same,relation of pig liver esterase concentration and maximal RLU,pig liver esterase,positive linear correlation over two orders of magnitude
same,Signal to noise ratio (to sterile),[8]; [18],2
same,Mean RLU (n = 3),[8]; [18],1041 RLU
same,Signal to noise ratio (to sterile),[8]; [19],9
same,Mean RLU (n = 3),[8]; [19],5100 RLU
same,Signal to noise ratio (to sterile),[8]; [20],72
same,Mean RLU (n = 3),[8]; [20],40236 RLU
same,Signal to noise ratio (to sterile),[8]; [21],275
same,Mean RLU (n = 3),[8]; [21],154011 RLU
same,Signal to noise ratio (to sterile),[8]; [22],693
same,Mean RLU (n = 3),[8]; [22],387911 RLU
same,detectable inoculation density of Salmonella Enteritidis,"[8]; after 6 h of incubation, signal-to-noise ratio of 2 relative to sterile controls",10 CFU/mL
same,Signal to noise ratio (to sterile),[9],408
same,Mean RLU (n = 3),[9]; 27-30 min after addition,158262 RLU
same,"limit of detection for Salmonella enterica, lower than with MUCAP",[10],625 fold
same,Signal to noise ratio (to sterile),[11],283
same,Mean RLU (n = 3),[11]; 27-30 min after addition,228202 RLU
COC1(c2ccc(/C=C/C(=O)O)c(B3OC(C)(C)C(C)(C)O3)c2)OOC12C1CC3CC(C1)CC2C3 (centres unmarked) [VIa],rate of increase of luminescence,glucose,positive correlation with the glucose concentration
Cc1onc(-c2ccccc2)c1C(=O)N[C@@H]1C(=O)N2[C@@H]1SC(C)(C)[C@@H]2C(=O)O [oxacillin],growth by time course of luminescence intensity,[12],multiplied both in the presence and the absence of oxacillin
same,growth by time course of luminescence intensity,[13],showed an increase in luminescence only in the antibiotic-free culture
